# Patent US20230148599A1, “FUNGICIDAL MIXTURES CONTAINING PYRAZOLE DERIVATIVES” (FMC Corporation, priority 2020, published 2023)
# System: Blumeria graminis f. sp. tritici
# Assay: Test C: wheat powdery mildew, preventive spray on wheat seedlings
# Format: in vivo
# Settings: 50 ppm, 100 = 100% disease control, 0 = no control
# How it was run: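 Seedlings were sprayed to run-off with compound suspended (ppm) in 50/50 acetone–water containing 250 ppm PEG400, then spore-dust inoculated the following day. After 8 days at 20° C, disease control was rated visually from 0 to 100 against controls.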
row,SMILES,Test C disease control rating
1,Cc1cccc([N+](=O)[O-])c1Nc1c(-c2ccc(C#N)cc2Cl)c(C)nn1C [compound 157],76%
2,Cc1nn(C)c(Nc2c(Cl)cccc2[N+](=O)[O-])c1-c1c(F)cc(F)cc1F [compound 158],99%
3,COc1ccc(Nc2c(-c3c(F)cc(F)cc3F)c(C)nn2C)c([N+](=O)[O-])c1 [compound 159],100%
4,COc1cc(F)c(-c2c(C)nn(C)c2Nc2c(Cl)cccc2[N+](=O)[O-])c(F)c1 [compound 160],96%
5,COc1cc(F)c(-c2c(C)nn(C)c2Nc2ccc(OC)cc2[N+](=O)[O-])c(F)c1 [compound 161],100%
6,COc1cc(F)c(-c2c(C)nn(C)c2Nc2c(C)cccc2[N+](=O)[O-])c(F)c1 [compound 162],99%
7,Cc1nn(C)c(Nc2c(Cl)cccc2[N+](=O)[O-])c1-c1c(F)cc(F)cc1Br [compound 163],98%
8,COc1ccc(Nc2c(-c3c(F)cc(F)cc3Br)c(C)nn2C)c([N+](=O)[O-])c1 [compound 164],98%
9,COc1cc(F)c(Nc2c(-c3ccc(F)cc3Br)c(C)nn2C)c([N+](=O)[O-])c1 [compound 165],98%
10,COc1cc(F)c(Nc2c(-c3ccc(C#N)cc3Cl)c(C)nn2C)c([N+](=O)[O-])c1 [compound 166],98%
11,Cc1cccc([N+](=O)[O-])c1Nc1c(-c2c(F)cc(F)cc2F)c(C)nn1C [compound 167],98%
12,Cc1nn(C)c(Nc2ccccc2[N+](=O)[O-])c1-c1c(F)cc(Cl)cc1F [compound 168],97%
13,Cc1cccc([N+](=O)[O-])c1Nc1c(-c2c(F)cc(F)cc2Br)c(C)nn1C [compound 169],100%

# System: Alternaria solani
# Assay: Test F: tomato early blight, preventive spray on tomato seedlings
# Format: in vivo
# Settings: 50 ppm, 100 = 100% disease control, 0 = no control
# How it was run: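 Tomato seedlings were sprayed to run-off with compound suspended in acetone/water (50/50) with 250 ppm PEG400 and inoculated with Alternaria solani spores the next day. Plants were held 48 h at 27 °C in saturated humidity, then 3 days at 20 °C. Disease control was rated visually from 0 to 100 against untreated controls.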
row,SMILES,Test F disease control rating
1,Cc1cccc([N+](=O)[O-])c1Nc1c(-c2ccc(C#N)cc2Cl)c(C)nn1C [compound 157],0%
2,Cc1nn(C)c(Nc2c(Cl)cccc2[N+](=O)[O-])c1-c1c(F)cc(F)cc1F [compound 158],83%
3,COc1ccc(Nc2c(-c3c(F)cc(F)cc3F)c(C)nn2C)c([N+](=O)[O-])c1 [compound 159],99%
4,COc1cc(F)c(-c2c(C)nn(C)c2Nc2c(Cl)cccc2[N+](=O)[O-])c(F)c1 [compound 160],99%
5,COc1cc(F)c(-c2c(C)nn(C)c2Nc2ccc(OC)cc2[N+](=O)[O-])c(F)c1 [compound 161],99%
6,COc1cc(F)c(-c2c(C)nn(C)c2Nc2c(C)cccc2[N+](=O)[O-])c(F)c1 [compound 162],98%
7,Cc1nn(C)c(Nc2c(Cl)cccc2[N+](=O)[O-])c1-c1c(F)cc(F)cc1Br [compound 163],76%
8,COc1ccc(Nc2c(-c3c(F)cc(F)cc3Br)c(C)nn2C)c([N+](=O)[O-])c1 [compound 164],99%
9,COc1cc(F)c(Nc2c(-c3ccc(F)cc3Br)c(C)nn2C)c([N+](=O)[O-])c1 [compound 165],100%
10,COc1cc(F)c(Nc2c(-c3ccc(C#N)cc3Cl)c(C)nn2C)c([N+](=O)[O-])c1 [compound 166],100%
11,Cc1cccc([N+](=O)[O-])c1Nc1c(-c2c(F)cc(F)cc2F)c(C)nn1C [compound 167],98%
12,Cc1nn(C)c(Nc2ccccc2[N+](=O)[O-])c1-c1c(F)cc(Cl)cc1F [compound 168],40%
13,Cc1cccc([N+](=O)[O-])c1Nc1c(-c2c(F)cc(F)cc2Br)c(C)nn1C [compound 169],0%

# System: Septoria tritici
# Assay: Test A: wheat leaf blotch, preventive spray on wheat seedlings
# Format: in vivo
# Settings: 50 ppm, 100 = 100% disease control, 0 = no control
# How it was run: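 Wheat seedlings sprayed to run-off with compound suspended in acetone/water with 250 ppm PEG400 surfactant, inoculated next day with Septoria tritici spores. Held 48 h saturated at 24 °C, then 17 days at 20 °C; disease rated 0–100% control relative to controls.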
row,SMILES,Test A disease control rating
1,Cc1cccc([N+](=O)[O-])c1Nc1c(-c2ccc(C#N)cc2Cl)c(C)nn1C [compound 157],100%
2,Cc1nn(C)c(Nc2c(Cl)cccc2[N+](=O)[O-])c1-c1c(F)cc(F)cc1F [compound 158],99%
3,COc1ccc(Nc2c(-c3c(F)cc(F)cc3F)c(C)nn2C)c([N+](=O)[O-])c1 [compound 159],100%
4,COc1cc(F)c(-c2c(C)nn(C)c2Nc2c(Cl)cccc2[N+](=O)[O-])c(F)c1 [compound 160],98%
5,COc1cc(F)c(-c2c(C)nn(C)c2Nc2ccc(OC)cc2[N+](=O)[O-])c(F)c1 [compound 161],100%
6,COc1cc(F)c(-c2c(C)nn(C)c2Nc2c(C)cccc2[N+](=O)[O-])c(F)c1 [compound 162],100%
7,Cc1nn(C)c(Nc2c(Cl)cccc2[N+](=O)[O-])c1-c1c(F)cc(F)cc1Br [compound 163],99%
8,COc1ccc(Nc2c(-c3c(F)cc(F)cc3Br)c(C)nn2C)c([N+](=O)[O-])c1 [compound 164],100%
9,COc1cc(F)c(Nc2c(-c3ccc(F)cc3Br)c(C)nn2C)c([N+](=O)[O-])c1 [compound 165],99%
10,COc1cc(F)c(Nc2c(-c3ccc(C#N)cc3Cl)c(C)nn2C)c([N+](=O)[O-])c1 [compound 166],99%
11,Cc1cccc([N+](=O)[O-])c1Nc1c(-c2c(F)cc(F)cc2F)c(C)nn1C [compound 167],100%
12,Cc1nn(C)c(Nc2ccccc2[N+](=O)[O-])c1-c1c(F)cc(Cl)cc1F [compound 168],100%
13,Cc1cccc([N+](=O)[O-])c1Nc1c(-c2c(F)cc(F)cc2Br)c(C)nn1C [compound 169],100%

# System: Phakopsora pachyrhizi
# Assay: Test D: Asian soybean rust, preventive spray on soybean seedlings
# Format: in vivo
# Settings: 50 ppm, 100 = 100% disease control, 0 = no control
# How it was run: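 Compounds in acetone/water (50/50) with 250 ppm PEG400, dosed in ppm, sprayed to run-off on soybean seedlings; inoculated with P. pachyrhizi spores next day. Held 24 h at 22 °C in saturated air, then 8 days at 22 °C; visual rating of disease control, 0–100, relative to untreated controls.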
row,SMILES,Test D disease control rating
1,Cc1cccc([N+](=O)[O-])c1Nc1c(-c2ccc(C#N)cc2Cl)c(C)nn1C [compound 157],0%
2,Cc1nn(C)c(Nc2c(Cl)cccc2[N+](=O)[O-])c1-c1c(F)cc(F)cc1F [compound 158],87%
3,COc1ccc(Nc2c(-c3c(F)cc(F)cc3F)c(C)nn2C)c([N+](=O)[O-])c1 [compound 159],13%
4,COc1cc(F)c(-c2c(C)nn(C)c2Nc2c(Cl)cccc2[N+](=O)[O-])c(F)c1 [compound 160],86%
5,COc1cc(F)c(-c2c(C)nn(C)c2Nc2ccc(OC)cc2[N+](=O)[O-])c(F)c1 [compound 161],0%
6,COc1cc(F)c(-c2c(C)nn(C)c2Nc2c(C)cccc2[N+](=O)[O-])c(F)c1 [compound 162],77%
7,Cc1nn(C)c(Nc2c(Cl)cccc2[N+](=O)[O-])c1-c1c(F)cc(F)cc1Br [compound 163],78%
8,COc1ccc(Nc2c(-c3c(F)cc(F)cc3Br)c(C)nn2C)c([N+](=O)[O-])c1 [compound 164],0%
9,COc1cc(F)c(Nc2c(-c3ccc(F)cc3Br)c(C)nn2C)c([N+](=O)[O-])c1 [compound 165],94%
10,COc1cc(F)c(Nc2c(-c3ccc(C#N)cc3Cl)c(C)nn2C)c([N+](=O)[O-])c1 [compound 166],98%
11,Cc1cccc([N+](=O)[O-])c1Nc1c(-c2c(F)cc(F)cc2F)c(C)nn1C [compound 167],65%
12,Cc1nn(C)c(Nc2ccccc2[N+](=O)[O-])c1-c1c(F)cc(Cl)cc1F [compound 168],0%
13,Cc1cccc([N+](=O)[O-])c1Nc1c(-c2c(F)cc(F)cc2Br)c(C)nn1C [compound 169],0%

# System: Puccinia recondita f. sp. tritici
# Assay: Test B: wheat leaf rust, preventive spray on wheat seedlings
# Format: in vivo
# Settings: 50 ppm, 100 = 100% disease control, 0 = no control
# How it was run: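 Wheat seedlings were sprayed to run-off with compound suspended at ppm concentrations in acetone/water containing 250 ppm PEG400. The next day they were inoculated with Puccinia recondita f. sp. tritici spores, held saturated at 20 °C for 24 h, then kept 7 days at 20 °C. Disease control was rated 0–100% relative to untreated controls.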
row,SMILES,Test B disease control rating
1,Cc1cccc([N+](=O)[O-])c1Nc1c(-c2ccc(C#N)cc2Cl)c(C)nn1C [compound 157],97%
2,Cc1nn(C)c(Nc2c(Cl)cccc2[N+](=O)[O-])c1-c1c(F)cc(F)cc1F [compound 158],100%
3,COc1ccc(Nc2c(-c3c(F)cc(F)cc3F)c(C)nn2C)c([N+](=O)[O-])c1 [compound 159],100%
4,COc1cc(F)c(-c2c(C)nn(C)c2Nc2c(Cl)cccc2[N+](=O)[O-])c(F)c1 [compound 160],100%
5,COc1cc(F)c(-c2c(C)nn(C)c2Nc2ccc(OC)cc2[N+](=O)[O-])c(F)c1 [compound 161],100%
6,COc1cc(F)c(-c2c(C)nn(C)c2Nc2c(C)cccc2[N+](=O)[O-])c(F)c1 [compound 162],100%
7,Cc1nn(C)c(Nc2c(Cl)cccc2[N+](=O)[O-])c1-c1c(F)cc(F)cc1Br [compound 163],100%
8,COc1ccc(Nc2c(-c3c(F)cc(F)cc3Br)c(C)nn2C)c([N+](=O)[O-])c1 [compound 164],100%
9,COc1cc(F)c(Nc2c(-c3ccc(F)cc3Br)c(C)nn2C)c([N+](=O)[O-])c1 [compound 165],100%
10,COc1cc(F)c(Nc2c(-c3ccc(C#N)cc3Cl)c(C)nn2C)c([N+](=O)[O-])c1 [compound 166],100%
11,Cc1cccc([N+](=O)[O-])c1Nc1c(-c2c(F)cc(F)cc2F)c(C)nn1C [compound 167],100%
12,Cc1nn(C)c(Nc2ccccc2[N+](=O)[O-])c1-c1c(F)cc(Cl)cc1F [compound 168],74%
13,Cc1cccc([N+](=O)[O-])c1Nc1c(-c2c(F)cc(F)cc2Br)c(C)nn1C [compound 169],100%

# System: Botrytis cinerea
# Assay: Test E: tomato Botrytis, preventive spray on tomato seedlings
# Format: in vivo
# Settings: 50 ppm, 100 = 100% disease control, 0 = no control
# How it was run: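 Compound suspended in 50/50 acetone/water with 250 ppm PEG400 surfactant and sprayed to run-off on tomato seedlings; Botrytis cinerea spores applied the next day. Incubation 48 h at 20° C in saturated atmosphere, then 3 days at 24° C. Visual rating 0–100% disease control relative to controls.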
row,SMILES,Test E disease control rating
1,Cc1cccc([N+](=O)[O-])c1Nc1c(-c2ccc(C#N)cc2Cl)c(C)nn1C [compound 157],9%
2,Cc1nn(C)c(Nc2c(Cl)cccc2[N+](=O)[O-])c1-c1c(F)cc(F)cc1F [compound 158],99%
3,COc1ccc(Nc2c(-c3c(F)cc(F)cc3F)c(C)nn2C)c([N+](=O)[O-])c1 [compound 159],99%
4,COc1cc(F)c(-c2c(C)nn(C)c2Nc2c(Cl)cccc2[N+](=O)[O-])c(F)c1 [compound 160],100%
5,COc1cc(F)c(-c2c(C)nn(C)c2Nc2ccc(OC)cc2[N+](=O)[O-])c(F)c1 [compound 161],100%
6,COc1cc(F)c(-c2c(C)nn(C)c2Nc2c(C)cccc2[N+](=O)[O-])c(F)c1 [compound 162],97%
7,Cc1nn(C)c(Nc2c(Cl)cccc2[N+](=O)[O-])c1-c1c(F)cc(F)cc1Br [compound 163],88%
8,COc1ccc(Nc2c(-c3c(F)cc(F)cc3Br)c(C)nn2C)c([N+](=O)[O-])c1 [compound 164],100%
9,COc1cc(F)c(Nc2c(-c3ccc(F)cc3Br)c(C)nn2C)c([N+](=O)[O-])c1 [compound 165],100%
10,COc1cc(F)c(Nc2c(-c3ccc(C#N)cc3Cl)c(C)nn2C)c([N+](=O)[O-])c1 [compound 166],99%
11,Cc1cccc([N+](=O)[O-])c1Nc1c(-c2c(F)cc(F)cc2F)c(C)nn1C [compound 167],95%
12,Cc1nn(C)c(Nc2ccccc2[N+](=O)[O-])c1-c1c(F)cc(Cl)cc1F [compound 168],99%
13,Cc1cccc([N+](=O)[O-])c1Nc1c(-c2c(F)cc(F)cc2Br)c(C)nn1C [compound 169],98%
